This is an account of results in patent US5543425A, “Method of inhibiting platelet aggregation using phenyl amidine thio derivatives” (G. D. Searle & Co., priority 1994, dated 1996).

pIC50: −log10 of the molar value.

For the assay, the system named is platelet aggregation in dog PRP. Nature of the assay: In-Vitro Platelet Aggregation in PRP (collagen-induced). The assay is classed as cell-based. Particulars: Canis lupus familiaris; for inhibition at 10 µM: Test Concentration 1 × 10^-5 (10 μM), dog PRP, collagen 33.3 μg/m final; for pIC50: dog platelet-rich plasma, collagen-induced aggregation. As to the method: Compounds of the invention were evaluated by an in vitro assay to determine compound activity as an inhibitors of platelet aggregation.
In-Vitro Platelet Aggregation in PRP
Healthy male or female dogs were fasted for 8 hours prior to drawing blood; then 30 ml whole blood from jugular vein was collected using a butterfly needle and 30 ml plastic syringe with 3 ml of 0.129 M buffered sodium citrate (3.8%). The syringe was rotated carefully as blood was drawn to mix the citrate. The whole blood was transferred to a 50 ml Corning Conical sterile centrifuge tube. Platelet-rich plasma (PRP) was prepared by centrifugation at 975×g for 3.17 minutes at room temperature, allowing the centrifuge to coast to a stop without braking. The PRP was removed from the blood with a plastic pipette and placed in a plastic capped, 50 ml Corning conical sterile centrifuge tube which was held at room temperature. Platelet poor plasma (PPP) was prepared by centrifuging the remaining blood at 2000×g for 15 minutes at room temperature allowing the centrifuge to coast to a stop without braking. The PRP platelet count was typically a count of 2.5-4×10^8 platelets per ml. 400 μL of the PRP preparation and 50 μL of the compound to be tested or saline were preincubated for 2 minutes at 37° C. in a BioData aggregometer (BioData, Horsham, PA). 50 μL of Collagen (equine tendon, Chronolog, Hayertown, PA) [33.3 μg/m, final concentration] was added to the cuvettes and the aggregation was monitored for 4 minutes. All compounds are tested in duplicate. Inhibition of aggregation for each sample was determined using the formula: % of inhibition=100-% of control and % of control=(Tinh -Tbas)/(Tag -Tbas) ×100, where Tbas is % of light transmission in PRP (baseline), Tagg is % of light transmission in the aggregated PRP sample (saline control) and Tinh is % of light transmission in the sample containing the inhibitor.

Turning to `CCOC(=O)CC(CS(=O)(=O)c1ccccc1)NC(=O)CCCCc1ccc(C(=N)N)cc1` (racemic) [(±)-ethyl 3-[[5-[4-(aminoiminomethyl)phenyl]-1-oxopentyl]amino]-4-(phenylsulfonyl)butanoate], the inhibition (in general, the percentage by which the read-out fell short of the control) at 10 µM was determined as 3%.
`N=C(N)c1ccc(CCCCC(=O)NC(CC(=O)O)CS(=O)(=O)c2ccccc2)cc1` (racemic) [(±)-3-[[5-[4-(aminoiminomethyl)phenyl]-1-oxopentyl]amino]-4-(phenylsulfonyl)butanoic acid]: the inhibition at 10 µM was 100% and the pIC50 (in general, −log10 of the IC50, conventionally taken in molar units) is 7.55.
Take `N=C(N)c1ccc(CCCCC(=O)NC(CCS(=O)(=O)Cc2ccccc2)CC(=O)O)cc1` (racemic) [(±)-3-[[5-[4-(aminoiminomethyl)phenyl]-1-oxopentyl]amino]-5[(phenylmethyl)sulfonyl]pentanoic acid]: the inhibition at 10 µM worked out at 100% and the pIC50 is 6.66.
Turning to `CC(C)OC(=O)CC(CS(=O)(=O)c1ccccn1)NC(=O)CCCCc1ccc(C(=N)N)cc1` (stereo not drawn) [1-methylethyl 3S-[[5-[4-(aminoiminomethyl)phenyl]-1-oxopentyl]amino]-4-(2-pyridinylsulfonyl)butanoate], the inhibition at 10 µM stood at 28%.
On the same count and under the same terms, the result for `CCOC(=O)CC(C[S+]([O-])c1ccccc1)NC(=O)CCCCc1ccc(C(=N)N)cc1` (racemic) [(±)-ethyl 3-[[5-[4-(aminoiminomethyl)phenyl]-1-oxopentyl]amino]-4-(4-phenylsulfinyl)butanoate] reads 0%.
As to `N=C(N)c1ccc(CCCCC(=O)NC(CC(=O)O)C[S+]([O-])c2ccccc2)cc1` (racemic) [(±)-3-[[5-[4-(aminoiminomethyl)phenyl]-1-oxopentyl]amino]-4-[(phenylsulfinyl)butanoic acid], the inhibition at 10 µM is 100% and the pIC50 is 6.70.
Turning to `N=C(N)c1ccc(CCCCC(=O)NC(CC(=O)O)CS(=O)(=O)c2ccccn2)cc1` (racemic) [(±)-3-[[5-[4-(aminoiminomethyl)phenyl]-1-oxopentyl]amino]-4-(2-pyridinylsulfonyl)butanoic acid], at 10 µM the inhibition was 100%.
Same read-out and setting: the result for `Cc1ccc([S+]([O-])CCNC(=O)CCCCc2ccc(C(=N)N)cc2)cc1` (centres unmarked) [4-(aminoiminomethyl)-N-[2-[(4-methylphenyl)sulfinyl]ethylbenzenepentanamide] reads 0%.
For `N=C(N)c1ccc(CCCCC(=O)NC(CSc2ccc(F)cc2)CC(=O)O)cc1` (racemic) [(±)-3-[[5-[4-(aminoiminomethyl)phenyl]-1-oxopentyl]amino]-4-[(4-fluorophenyl)thio]butanoic acid], testing at 10 µM gave an inhibition of 100% and the negative logarithm of the IC50 (pIC50) was 5.74.
For `N=C(N)c1ccc(CCCCC(=O)NC(CSc2ccccc2)CC(=O)O)cc1` (racemic) [(±)-3-[[5-[4-(aminoiminomethyl)phenyl]-1-oxopentyl]amino]-4-(phenylthio) butanoic acid], in that order: 100% and 6.30.
For `CS(=O)(=O)CCC(CC(=O)O)NC(=O)CCCCc1ccc(C(=N)N)cc1` (racemic) [(±)-3-[[5-[4-(aminoiminomethyl)phenyl]-1-oxopentyl]amino]-5-(methylsulfonyl)pentanoic acid], in that order: 100% and 6.15.
The matching figures for `COc1ccc(S(=O)(=O)CC(CC(=O)O)NC(=O)CCCCc2ccc(C(=N)N)cc2)cc1` (racemic) [(±)-3-[[5-[4-(aminoiminomethyl)phenyl]-1-oxopentyl]amino]-4-[(4-methoxyphenyl)sulfonyl]butanoic acid]: 100% and 6.89.
`N=C(N)c1ccc(CCCCC(=O)NC(CC[S+]([O-])Cc2ccccc2)CC(=O)O)cc1` (racemic) [(±)-3-[[5-[4-(aminoiminomethyl)phenyl]-1-oxopentyl]amino]-5-[(phenylmethyl)sulfinyl]pentanoic acid] gave an inhibition at 10 µM of 100% and a pIC50 of 7.00.
As to `CSCCC(CC(=O)O)NC(=O)CCCCc1ccc(C(=N)N)cc1` (racemic) [(±)-3-[[5-[4-(aminoiminomethyl)phenyl]-1-oxopentyl]amino]-5-(methylthio) pentanoic acid], the inhibition at 10 µM turned out to be 100% and the pIC50 was 5.89.
For `Cc1ccc(S(=O)(=O)CC(CC(=O)O)NC(=O)CCCCc2ccc(C(=N)N)cc2)cc1` (racemic) [(+)-3-[[5-[4-(aminoiminomethyl)phenyl]-1-oxopentyl]amino]-4-[[(4-methylphenyl)sulfonyl]butanoic acid], the inhibition at 10 µM is 100%.
In the case of `CCOC(=O)CC(CSc1ccccc1)NC(=O)CCCCc1ccc(C(=N)N)cc1` (racemic) [(±)-ethyl 3-[[5-[[4-(aminoiminomethyl)phenyl]-1-oxopentyl]amino]-4-(4-phenylthio) butanoate], 10 µM produced 0% inhibition.
Regarding `C[S+]([O-])CCC(CC(=O)O)NC(=O)CCCCc1ccc(C(=N)N)cc1` (racemic) [(±)-3-[[5-[4-(aminoiminomethyl)phenyl]-1-oxopentyl]amino]-5-(methylsulfinyl) pentanoic acid], 10 µM produced 100% inhibition and the pIC50 was 5.82.
Regarding `Cc1ccc(S(=O)(=O)CCNC(=O)CCCCc2ccc(C(=N)N)cc2)cc1` [4-(aminoiminomethyl)-N-[2-[(4-methylphenyl)sulfonyl]ethylbenzenepentanamide], at 10 µM the inhibition was 23%.
For the compound `CCOC(=O)CC(CC[S+]([O-])Cc1ccccc1)NC(=O)CCCCc1ccc(C(=N)N)cc1` (racemic) [(+)-ethyl 3-[[5-[4-aminoiminomethyl)phenyl]-1-oxopentyl]amino]-5-[(phenylmethyl)sulfinyl]pentanoate], the inhibition at 10 µM came to 100% and the pIC50 was 6.38.
For `N=C(N)c1ccc(CCCCC(=O)NC(CC(=O)O)CS(=O)(=O)c2ccc(F)cc2)cc1` (racemic) [(±)-3-[[5-[4-(aminoiminomethyl)phenyl]-1-oxopentyl]amino]-4-[[(4-fluorophenyl)]sulfonyl]butanoic acid], in that order: 100% and 6.92.
